Reference: patent US20050080076A1 (Xanodyne Pharmacal, Inc., priority 2003, published 2005)

Key:
Serotonin 5-HT7 = Serotonin 5-HT7 (Homo sapiens, UniProt P34969); assay: Receptor binding, Serotonin 5-HT7
Method: (§1) Receptor-ligand binding studies were performed as known to one skilled in the art. Compounds evaluated were LMP, the parent compound, the NDM LMP metabolite of LMP, and the sulfoxide metabolite of LMP. These studies verified receptor binding and affinity by the parent compound, as well as identified other potential receptors for the parent compound and its metabolites, and identified and verified receptors and receptor affinity for the metabolites.
(§2) Dopamine receptor affinity included binding to D1, D2, D3, D4, and D5 receptors. Serotonin receptor affinity included binding to 5-HT1A, 5-HT2A, 5-HT2B, 5-HT2, 5-HT5A, 5-HT6, and 5-HT7 receptors. Alpha adrenergic receptor affinity included binding to α1A, α1B, α1C, α2A, α2B, and α2C receptors. Muscarinic receptor affinity included binding to M1, M2, M3, M4, and M5 receptors. Binding to the histamine H1 receptor, the calcium ion channel receptor, and the sodium ion channel receptor were also evaluated. In each of the tables, the following abbreviations are used: LMP indicates the parent compound levomepromazine. NDM LMP indicates the N-desmethyl (N-desmethyl) metabolite. Sulfoxide indicates the sulfoxide metabolite. […] Ki (the inhibition constants of binding) indicate binding affinity.

Serotonin 5-HT2C = biological target: T1, Serotonin 5-HT2C (Homo sapiens, UniProt P28335); assay: Receptor binding, Serotonin 5-HT2C
T1 sequence (P28335 33-458): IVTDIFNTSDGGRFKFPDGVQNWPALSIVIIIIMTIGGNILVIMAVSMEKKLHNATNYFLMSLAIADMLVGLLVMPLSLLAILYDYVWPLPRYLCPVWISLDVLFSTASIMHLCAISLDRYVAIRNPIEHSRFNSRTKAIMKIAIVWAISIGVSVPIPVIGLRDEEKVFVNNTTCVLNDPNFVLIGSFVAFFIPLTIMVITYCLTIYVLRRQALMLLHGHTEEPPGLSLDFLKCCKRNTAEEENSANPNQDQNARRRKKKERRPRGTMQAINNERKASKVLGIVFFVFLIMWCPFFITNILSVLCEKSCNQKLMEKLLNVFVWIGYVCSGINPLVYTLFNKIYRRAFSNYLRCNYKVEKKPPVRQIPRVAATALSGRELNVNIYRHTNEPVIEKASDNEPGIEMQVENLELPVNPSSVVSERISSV
Method: as §1, §2

Serotonin 5-HT6 = Serotonin 5-HT6 (Homo sapiens, UniProt P50406); assay: Receptor binding, Serotonin 5-HT6
Sequence of Serotonin 5-HT6 (P50406 whole entry): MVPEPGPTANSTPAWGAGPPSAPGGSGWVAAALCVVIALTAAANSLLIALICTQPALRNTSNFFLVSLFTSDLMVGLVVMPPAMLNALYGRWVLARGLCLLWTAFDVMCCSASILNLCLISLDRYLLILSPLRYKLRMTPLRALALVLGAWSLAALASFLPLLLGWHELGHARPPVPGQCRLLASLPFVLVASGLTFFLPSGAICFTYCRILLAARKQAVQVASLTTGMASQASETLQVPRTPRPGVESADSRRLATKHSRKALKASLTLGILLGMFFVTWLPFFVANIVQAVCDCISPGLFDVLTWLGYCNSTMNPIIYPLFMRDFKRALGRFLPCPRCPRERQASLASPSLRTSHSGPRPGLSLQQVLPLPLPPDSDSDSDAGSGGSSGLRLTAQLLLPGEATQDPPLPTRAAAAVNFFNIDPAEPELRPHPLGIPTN
Method: as §1, §2

α1 adrenergic receptors = assay: Receptor affinity summary, α1 adrenergic receptors; assay type: binding; conditions: for binding to all α1 adrenergic receptors (in words): α1A, α1B, and α1C; for Relative Affinity: α1-Adrenergic
Method: as §1, §2

Muscarinic M2 = biological target: T2, Muscarinic M2 (Homo sapiens, UniProt P08172); assay: Receptor binding, Muscarinic M2
T2 sequence (P08172 1-466): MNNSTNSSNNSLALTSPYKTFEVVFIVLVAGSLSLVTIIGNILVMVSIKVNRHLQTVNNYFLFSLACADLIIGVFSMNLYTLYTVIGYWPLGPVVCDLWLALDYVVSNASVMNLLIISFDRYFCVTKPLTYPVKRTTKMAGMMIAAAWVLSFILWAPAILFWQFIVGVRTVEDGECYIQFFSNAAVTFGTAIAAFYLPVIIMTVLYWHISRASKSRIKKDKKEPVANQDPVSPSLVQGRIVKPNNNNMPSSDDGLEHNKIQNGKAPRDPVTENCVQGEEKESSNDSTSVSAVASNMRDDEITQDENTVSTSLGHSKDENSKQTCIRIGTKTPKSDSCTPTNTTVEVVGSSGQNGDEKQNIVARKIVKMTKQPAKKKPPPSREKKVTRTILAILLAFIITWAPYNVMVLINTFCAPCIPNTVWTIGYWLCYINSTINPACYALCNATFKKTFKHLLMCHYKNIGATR
Method: as §1, §2

Dopamine D4.2 = biological target: T3, Dopamine D4.2 (Homo sapiens, UniProt P21917, DEL271-302); assay: Receptor binding, Dopamine D4.2
T3 sequence (P21917 with tags, fused parts or gaps DEL271-302): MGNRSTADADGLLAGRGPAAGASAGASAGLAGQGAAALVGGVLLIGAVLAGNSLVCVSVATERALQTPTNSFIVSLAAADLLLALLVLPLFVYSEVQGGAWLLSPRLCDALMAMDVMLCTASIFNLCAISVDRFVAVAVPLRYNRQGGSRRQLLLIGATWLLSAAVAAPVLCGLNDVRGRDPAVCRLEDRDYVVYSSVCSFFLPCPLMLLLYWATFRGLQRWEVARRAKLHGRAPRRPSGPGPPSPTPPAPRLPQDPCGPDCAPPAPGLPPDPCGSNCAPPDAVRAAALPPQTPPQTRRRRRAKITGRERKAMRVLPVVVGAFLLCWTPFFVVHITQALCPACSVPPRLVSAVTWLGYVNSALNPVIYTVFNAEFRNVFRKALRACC
Method: as §1, §2

Adrenergic α2C = biological target: T4, Adrenergic α2C (Homo sapiens, UniProt P18825); assay: Receptor binding, Adrenergic α2C
T4 sequence (P18825 1-462): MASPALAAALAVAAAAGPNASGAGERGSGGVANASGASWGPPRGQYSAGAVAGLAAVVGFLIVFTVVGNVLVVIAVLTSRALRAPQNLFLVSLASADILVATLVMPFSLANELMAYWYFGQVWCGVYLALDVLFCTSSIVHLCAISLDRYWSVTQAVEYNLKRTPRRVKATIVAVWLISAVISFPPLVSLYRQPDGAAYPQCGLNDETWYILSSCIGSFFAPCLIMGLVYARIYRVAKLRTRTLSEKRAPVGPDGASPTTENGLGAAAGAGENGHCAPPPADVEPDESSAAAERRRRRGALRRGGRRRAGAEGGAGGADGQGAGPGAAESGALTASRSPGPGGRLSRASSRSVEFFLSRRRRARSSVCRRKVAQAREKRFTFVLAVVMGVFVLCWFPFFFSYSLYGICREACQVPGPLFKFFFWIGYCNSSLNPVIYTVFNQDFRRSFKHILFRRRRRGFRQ
Method: as §1, §2

α2 adrenergic receptors = assay: Receptor affinity summary, α2 adrenergic receptors; assay type: binding; set-up: key to Relative Affinity: ≧ indicates greater or equal affinity; = indicates about the same affinity; − indicates no affinity; conditions: for Relative Affinity: α2-Adrenergic
Method: as §1, §2

Sequence of Serotonin 5-HT7 (P34969 whole entry): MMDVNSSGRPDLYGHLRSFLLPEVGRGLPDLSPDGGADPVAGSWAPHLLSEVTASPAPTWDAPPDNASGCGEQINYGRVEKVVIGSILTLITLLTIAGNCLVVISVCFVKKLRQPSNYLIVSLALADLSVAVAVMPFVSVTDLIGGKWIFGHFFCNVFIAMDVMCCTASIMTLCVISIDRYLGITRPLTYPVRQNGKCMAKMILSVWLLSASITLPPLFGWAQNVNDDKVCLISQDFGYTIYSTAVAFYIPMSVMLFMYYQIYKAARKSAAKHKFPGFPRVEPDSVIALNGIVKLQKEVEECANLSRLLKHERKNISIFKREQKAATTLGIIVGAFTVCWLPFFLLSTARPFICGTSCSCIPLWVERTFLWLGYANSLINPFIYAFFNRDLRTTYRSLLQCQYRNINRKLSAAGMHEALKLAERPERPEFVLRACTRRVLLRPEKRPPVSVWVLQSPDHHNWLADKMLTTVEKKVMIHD

Row | Compound | Ki (Serotonin 5-HT7) [nM] | Ki (Serotonin 5-HT2C) [nM] | Ki (Serotonin 5-HT6) [nM] | binding to all α1 adrenergic receptors (in words) (α1 adrenergic receptors) | Ki (Muscarinic M2) [nM] | Ki (Dopamine D4.2) [nM] | Ki (Adrenergic α2C) [nM] | binding affinity to α2 adrenergic receptors (in words) (α2 adrenergic receptors) | Relative Affinity (α1 adrenergic receptors) | Relative Affinity (α2 adrenergic receptors)
1 | COc1ccc2c(c1)N(C[C@H](C)CN(C)C)c1ccccc1S2 [LMP, Levomepromazine] | 24 | 8 | 82 | high binding | 263 | 769 | 77 | demonstrated binding |  | 
2 | CNCC(C)CN1c2ccccc2Sc2ccc(OC)cc21 (stereo not drawn) [NDM LMP, R(+) 2-methoxy-10-2-methyl-3-monomethylaminopropyl phenothiazine] | 18 | 9 | 98 | high binding | 325 | 3110 | 74 | demonstrated binding | LMP = NDM LMP ≧ sulfoxide | LMP = NDM LMP
3 | COc1ccc2c(c1)N(C[C@H](C)CN(C)C)c1ccccc1[S+]2[O-] (stereo partly shown) [Sulfoxide, levomepromazine sulfoxide] | > 10000 | 1980 | > 10000 | high binding | 1290 | > 10000 | > 10000 | no affinity was detected | LMP = NDM LMP ≧ sulfoxide | −
